Measurements published in patent US20050282743A1, “Molecular interactions in cells” (Arbor Vita Corporation, priority 2001, published 2005).
Ends that are not written are not given here. Peptide text beside a SMILES is read from it. * marks the point of attachment. Biotin = O=C1N[C@H]2[C@H](CS[C@H]2CCCCC(=O)*)N1

Experiments:
Assay in all cases: G' assay (10 uM PL peptide), results of TABLE 7 and TABLE 12
Type in all cases: binding
[1] = target: T1, PDZ protein (GST-PDZ fusion) (Homo sapiens, UniProt O14907); details: PDZ TIP1, PDZ Domain 1
T1 construct: made in house; host or cells: E. coli (DH5alpha, BL21 or JM109)
T1 sequence (O14907 1-124): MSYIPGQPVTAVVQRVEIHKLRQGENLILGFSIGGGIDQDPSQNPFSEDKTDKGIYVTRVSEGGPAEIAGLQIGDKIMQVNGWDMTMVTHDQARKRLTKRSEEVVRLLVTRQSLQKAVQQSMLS
Procedure, shortened: (§1)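 Binding classes derive from A450 nm of bound biotin-tagged PL peptide. A score of 5 needs A450 above 4 in more than two repeats.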

[2] = target: T2, PDZ protein (GST-PDZ fusion) (Homo sapiens, UniProt P78352); details: PDZ PSD95, PDZ Domain 1, 2, 3
T2 construct: made in house; host or cells: E. coli (DH5alpha, BL21 or JM109)
T2 sequence (P78352 whole entry, the tested form may be a part): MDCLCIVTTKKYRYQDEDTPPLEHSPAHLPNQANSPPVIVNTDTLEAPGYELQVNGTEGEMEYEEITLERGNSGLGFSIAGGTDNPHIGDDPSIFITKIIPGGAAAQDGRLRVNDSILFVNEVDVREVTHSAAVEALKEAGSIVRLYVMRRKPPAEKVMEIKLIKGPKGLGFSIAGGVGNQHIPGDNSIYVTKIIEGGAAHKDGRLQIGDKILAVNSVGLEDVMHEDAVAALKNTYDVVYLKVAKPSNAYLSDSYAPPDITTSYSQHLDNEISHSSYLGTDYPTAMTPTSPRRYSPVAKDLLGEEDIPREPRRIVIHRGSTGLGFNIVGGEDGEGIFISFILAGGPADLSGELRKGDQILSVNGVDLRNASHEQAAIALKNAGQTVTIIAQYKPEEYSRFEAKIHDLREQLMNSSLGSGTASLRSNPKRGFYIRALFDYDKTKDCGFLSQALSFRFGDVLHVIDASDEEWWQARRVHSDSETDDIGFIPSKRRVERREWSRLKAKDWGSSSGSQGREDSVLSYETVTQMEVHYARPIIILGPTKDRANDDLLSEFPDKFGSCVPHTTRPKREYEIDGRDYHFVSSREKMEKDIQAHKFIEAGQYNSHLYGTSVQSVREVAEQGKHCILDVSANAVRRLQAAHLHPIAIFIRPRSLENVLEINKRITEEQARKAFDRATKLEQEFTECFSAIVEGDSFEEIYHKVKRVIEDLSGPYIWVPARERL
Procedure, shortened: as §1

[3] = target: T3, PDZ protein (GST-PDZ fusion) (Homo sapiens, UniProt Q12959); details: PDZ DLG1, PDZ Domain 1, 2
T3 construct: made in house; host or cells: E. coli (DH5alpha, BL21 or JM109)
T3 sequence (Q12959 whole entry, the tested form may be a part): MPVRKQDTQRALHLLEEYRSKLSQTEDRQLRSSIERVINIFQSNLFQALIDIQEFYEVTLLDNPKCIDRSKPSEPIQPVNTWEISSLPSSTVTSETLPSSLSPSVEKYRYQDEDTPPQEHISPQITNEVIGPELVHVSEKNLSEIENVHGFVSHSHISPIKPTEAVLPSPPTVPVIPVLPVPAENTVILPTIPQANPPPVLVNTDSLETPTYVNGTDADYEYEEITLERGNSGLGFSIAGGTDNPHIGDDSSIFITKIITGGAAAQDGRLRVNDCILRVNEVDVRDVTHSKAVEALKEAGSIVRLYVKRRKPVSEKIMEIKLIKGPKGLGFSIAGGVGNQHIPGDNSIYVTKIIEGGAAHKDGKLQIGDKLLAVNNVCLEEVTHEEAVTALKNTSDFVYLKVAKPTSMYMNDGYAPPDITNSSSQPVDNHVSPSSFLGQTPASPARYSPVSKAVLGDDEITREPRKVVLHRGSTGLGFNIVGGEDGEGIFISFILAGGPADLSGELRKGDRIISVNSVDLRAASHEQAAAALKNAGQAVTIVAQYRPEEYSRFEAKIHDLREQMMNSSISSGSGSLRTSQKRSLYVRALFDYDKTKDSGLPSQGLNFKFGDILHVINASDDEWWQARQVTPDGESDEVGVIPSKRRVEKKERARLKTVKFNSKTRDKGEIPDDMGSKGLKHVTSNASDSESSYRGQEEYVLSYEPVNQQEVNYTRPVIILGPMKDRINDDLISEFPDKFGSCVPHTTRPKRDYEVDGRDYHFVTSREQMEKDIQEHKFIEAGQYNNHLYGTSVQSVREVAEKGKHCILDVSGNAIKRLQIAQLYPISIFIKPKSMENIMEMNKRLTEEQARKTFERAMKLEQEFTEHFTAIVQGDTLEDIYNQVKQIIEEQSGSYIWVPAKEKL
Procedure, shortened: as §1

[4] = target: T4, PDZ protein (GST-PDZ fusion) (Homo sapiens, UniProt Q92796); details: PDZ NeDLG, PDZ Domain 1, 2
T4 construct: made in house; host or cells: E. coli (DH5alpha, BL21 or JM109)
T4 sequence (Q92796 1-817): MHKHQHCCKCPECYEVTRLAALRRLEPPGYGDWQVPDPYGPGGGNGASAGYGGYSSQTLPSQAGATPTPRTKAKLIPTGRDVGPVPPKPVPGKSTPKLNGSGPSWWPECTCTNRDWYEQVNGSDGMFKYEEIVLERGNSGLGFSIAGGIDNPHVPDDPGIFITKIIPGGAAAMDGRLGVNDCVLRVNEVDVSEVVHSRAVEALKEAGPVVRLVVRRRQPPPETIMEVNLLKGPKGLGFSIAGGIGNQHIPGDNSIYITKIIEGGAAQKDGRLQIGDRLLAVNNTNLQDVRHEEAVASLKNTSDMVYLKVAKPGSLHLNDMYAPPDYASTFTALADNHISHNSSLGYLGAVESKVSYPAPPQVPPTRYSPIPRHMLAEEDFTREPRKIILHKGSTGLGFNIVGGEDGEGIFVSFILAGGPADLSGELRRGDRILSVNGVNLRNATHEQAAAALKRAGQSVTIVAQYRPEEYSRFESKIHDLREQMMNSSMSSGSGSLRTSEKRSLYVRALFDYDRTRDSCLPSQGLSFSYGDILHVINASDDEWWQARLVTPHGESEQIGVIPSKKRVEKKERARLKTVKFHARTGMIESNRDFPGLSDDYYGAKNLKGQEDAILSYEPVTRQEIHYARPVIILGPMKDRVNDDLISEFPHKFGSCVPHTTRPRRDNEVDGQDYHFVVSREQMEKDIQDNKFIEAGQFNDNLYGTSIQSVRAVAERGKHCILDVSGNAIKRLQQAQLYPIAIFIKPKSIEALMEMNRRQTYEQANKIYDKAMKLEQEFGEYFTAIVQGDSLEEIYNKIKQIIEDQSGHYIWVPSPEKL
Procedure, shortened: as §1

[5] = target: T5, PDZ protein (GST-PDZ fusion) (Homo sapiens, UniProt O15018)
T5 construct: made in house; host or cells: E. coli (DH5alpha, BL21 or JM109)
Procedure, shortened: as §1

[6] = target: T6, PDZ protein (GST-PDZ fusion) (Homo sapiens, UniProt Q8NI35); details: PDZ INADL
T6 construct: made in house; host or cells: E. coli (DH5alpha, BL21 or JM109)
T6 sequence (Q8NI35 whole entry, the tested form may be a part): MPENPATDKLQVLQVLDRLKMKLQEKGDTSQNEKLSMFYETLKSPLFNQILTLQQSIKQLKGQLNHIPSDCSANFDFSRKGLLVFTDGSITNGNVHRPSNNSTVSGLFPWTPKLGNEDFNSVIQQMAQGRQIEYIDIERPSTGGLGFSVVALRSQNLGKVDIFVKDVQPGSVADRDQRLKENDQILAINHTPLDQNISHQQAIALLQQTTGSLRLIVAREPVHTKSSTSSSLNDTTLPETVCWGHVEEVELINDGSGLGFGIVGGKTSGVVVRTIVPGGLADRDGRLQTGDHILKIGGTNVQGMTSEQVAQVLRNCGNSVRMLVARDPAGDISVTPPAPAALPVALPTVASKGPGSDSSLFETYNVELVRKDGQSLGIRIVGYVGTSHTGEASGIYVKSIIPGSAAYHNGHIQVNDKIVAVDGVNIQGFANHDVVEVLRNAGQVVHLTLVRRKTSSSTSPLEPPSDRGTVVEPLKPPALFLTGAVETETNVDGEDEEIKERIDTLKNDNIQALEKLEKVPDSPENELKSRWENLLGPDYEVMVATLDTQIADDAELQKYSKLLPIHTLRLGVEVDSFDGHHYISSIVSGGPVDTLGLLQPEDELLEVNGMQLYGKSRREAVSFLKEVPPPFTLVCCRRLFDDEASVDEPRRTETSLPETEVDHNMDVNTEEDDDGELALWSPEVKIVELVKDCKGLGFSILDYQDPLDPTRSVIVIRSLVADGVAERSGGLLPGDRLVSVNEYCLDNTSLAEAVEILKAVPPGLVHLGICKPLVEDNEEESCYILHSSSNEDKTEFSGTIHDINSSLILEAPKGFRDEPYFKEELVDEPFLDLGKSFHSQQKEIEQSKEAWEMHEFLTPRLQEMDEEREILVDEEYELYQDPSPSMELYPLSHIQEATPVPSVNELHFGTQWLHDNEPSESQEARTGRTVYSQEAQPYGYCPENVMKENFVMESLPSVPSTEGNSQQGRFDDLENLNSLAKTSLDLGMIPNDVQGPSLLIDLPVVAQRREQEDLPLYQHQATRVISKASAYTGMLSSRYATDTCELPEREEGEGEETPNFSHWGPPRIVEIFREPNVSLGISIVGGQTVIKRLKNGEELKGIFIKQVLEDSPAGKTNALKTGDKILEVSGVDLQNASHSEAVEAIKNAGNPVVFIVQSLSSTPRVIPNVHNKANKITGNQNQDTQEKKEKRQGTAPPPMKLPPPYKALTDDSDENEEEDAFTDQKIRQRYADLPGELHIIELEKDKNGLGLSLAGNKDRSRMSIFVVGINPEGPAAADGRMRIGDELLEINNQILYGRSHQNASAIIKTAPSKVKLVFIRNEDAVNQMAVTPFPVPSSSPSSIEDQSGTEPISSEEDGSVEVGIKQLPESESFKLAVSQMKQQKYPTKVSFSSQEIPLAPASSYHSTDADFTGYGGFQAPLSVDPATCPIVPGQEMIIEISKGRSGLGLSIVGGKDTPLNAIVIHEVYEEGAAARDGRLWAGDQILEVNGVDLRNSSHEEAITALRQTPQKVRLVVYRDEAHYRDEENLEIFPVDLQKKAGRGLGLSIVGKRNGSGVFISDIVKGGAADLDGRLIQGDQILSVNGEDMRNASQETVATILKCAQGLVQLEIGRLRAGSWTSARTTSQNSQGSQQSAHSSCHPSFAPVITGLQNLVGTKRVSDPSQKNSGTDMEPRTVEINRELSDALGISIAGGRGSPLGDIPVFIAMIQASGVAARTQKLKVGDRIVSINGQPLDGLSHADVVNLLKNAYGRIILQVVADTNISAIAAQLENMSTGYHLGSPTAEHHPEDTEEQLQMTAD
Procedure, shortened: as §1

Classification [1]	Classification [3]	Classification ([5]; PDZ AIPC, PDZ Domain 1)	Classification ([6]; PDZ Domain 3)	Compound	other results
1 (A450 nm 0-1)	1 (A450 nm 0-1)			CC[C@H](C)[C@H](NC(=O)[C@H](Cc1c[nH]cn1)NC(=O)[C@H](C)NC(=O)[C@H](C)NC(=O)[C@H](CO)NC(=O)[C@@H]1CCCN1C(=O)[C@H](CCCNC(=N)N)NC(=O)[C@H](CC(=O)O)NC(=O)[C@H](CCCCN)NC(=O)[C@@H]1CCCN1C(=O)[C@H](CC(=O)O)NC(=O)[C@H](CCC(=O)O)NC(=O)CCCC[C@@H]1SC[C@@H]2NC(=O)N[C@@H]21)C(=O)N[C@H](C(=O)N[C@@H](CCC(=O)O)C(=O)N[C@@H](C)C(=O)N[C@@H](CC(C)C)C(=O)N[C@@H](CCC(=O)O)C(=O)N[C@H](C(=O)N[C@@H](CC(=O)O)C(=O)N[C@H](C(=O)O)C(C)C)[C@@H](C)O)C(C)C [PDZ-binding kinase (PBK)] (Biotin-EDPKDRPSAAHIVEALETDV-OH; C-terminus assumed)	Classification [2]: 1 (A450 nm 0-1); Classification [4]: 1 (A450 nm 0-1)
		1 (A450 nm 0-1)	1 (A450 nm 0-1)	CC[C@H](C)[C@H](NC(=O)[C@H](Cc1ccc(O)cc1)NC(=O)[C@H](CC(C)C)NC(=O)[C@H](CCC(N)=O)NC(=O)[C@H](Cc1c[nH]cn1)NC(=O)[C@H](CO)NC(=O)[C@H](C)NC(=O)[C@H](CC(C)C)NC(=O)[C@@H](NC(=O)[C@H](CC(=O)O)NC(=O)[C@H](CCSC)NC(=O)[C@H](Cc1ccccc1)NC(=O)[C@@H]1CCCN1C(=O)[C@H](CCCNC(=N)N)NC(=O)[C@@H](NC(=O)[C@H](CC(C)C)NC(=O)[C@H](CC(N)=O)NC(=O)[C@H](CC(=O)O)NC(=O)[C@@H](NC(=O)[C@H](CO)NC(=O)CCCC[C@@H]1SC[C@@H]2NC(=O)N[C@@H]21)[C@@H](C)O)C(C)C)[C@@H](C)O)C(=O)O [presenilin-2] (Biotin-STDNLVRPFMDTLASHQLYI-OH; C-terminus assumed)	Classification ([5]; PDZ AIPC, PDZ Domain 4): 1 (A450 nm 0-1); Classification ([5]; PDZ KIAA0300, PDZ Domain 1): 1 (A450 nm 0-1); Classification ([5]; PDZ KIAA0300, PDZ Domain 2): 1 (A450 nm 0-1)
		2 (A450 nm 1-2)	2 (A450 nm 1-2)	A2AA_HUMAN (modified) (Biotin-HDFRRAFKKILARGDRKRIV; not fully specified)	Classification ([6]; PDZ Domain 4): 1 (A450 nm 0-1)
1 (A450 nm 0-1)				ARHRVTSYTSSSVNVSSNL (Biotin-ARHRVTSYTSSSVNVSSNL) [IL-8RB]	
1 (A450 nm 0-1)				CKR5_HUMAN (ERASSVYTRSTGEQEISVGL)	
1 (A450 nm 0-1)	1 (A450 nm 0-1)			GPVPGEPAKPKTSAHHATFV (Biotin-GPVPGEPAKPKTSAHHATFV)	
	1 (A450 nm 0-1)			SLKPGTVLPPPPYRHRNTVV (Biotin-SLKPGTVLPPPPYRHRNTVV) [ErbB-4 receptor]	Classification [2]: 1 (A450 nm 0-1); Classification [4]: 1 (A450 nm 0-1)

Compound	Classification [1]	Classification [3]	Classification ([5]; PDZ AIPC, PDZ Domain 1)	Classification ([6]; PDZ Domain 3)	other results
CC[C@H](C)[C@H](NC(=O)[C@H](C)NC(=O)[C@H](CC(C)C)NC(=O)[C@H](Cc1c[nH]c2ccccc12)NC(=O)[C@H](Cc1c[nH]cn1)NC(=O)[C@H](CCC(N)=O)NC(=O)[C@H](CC(C)C)NC(=O)[C@H](CCC(N)=O)NC(=O)[C@H](Cc1ccccc1)NC(=O)[C@H](CCC(N)=O)NC(=O)[C@H](CCCNC(=N)N)NC(=O)[C@@H](NC(=O)[C@H](CC(=O)O)NC(=O)[C@H](CCCNC(=N)N)NC(=O)[C@H](CCC(N)=O)NC(=O)[C@H](C)NC(=O)[C@@H](NC(=O)[C@H](CC(C)C)NC(=O)[C@H](Cc1c[nH]cn1)NC(=O)[C@H](Cc1c[nH]cn1)NC(=O)CCCC[C@@H]1SC[C@@H]2NC(=O)N[C@@H]21)C(C)C)[C@@H](C)CC)C(=O)O [noradrenaline transporter] (Biotin-HHLVAQRDIRQFQLQHWLAI-OH; C-terminus assumed)			2 (A450 nm 1-2)	3 (A450 nm 2-3)	
